From patent publication US8946482B2, “Salts of rasagiline and pharmaceutical preparations thereof” (Ratiopharm GmbH, priority 2009, dated 2015)
Where two headings read alike, the source gives them in different places.

Conditions: for physical state of the salt: room temperature
Method: The term “liquid” means that the salt is in a state of matter where the particles are loose and can freely form a distinct surface at the boundaries of the bulk material. The liquid's shape is determined by the container it fills. The liquid can be of low or high viscosity, e.g. in the form of an oil or thick oil.
The liquid salt of the present invention can be prepared by mixing rasagiline and the acid and recovering the salt. […] Efficient mixing can be mediated by the use of a mixer mill. Alternatively, the rasagiline and the acid can be mixed in the presence of a solvent. In this case, either the rasagiline or the acid or the rasagiline and the acid can be suspended or dissolved in the same or different solvents before mixing. For example, first the rasagiline can be dissolved in the solvent and then the acid is added to this solution. Suitable solvents are, e.g., water, tetrahydrofurane, isopropyl alcohol, acetone, diisopropyl ether, and mixtures thereof. Preferred solvents are diisopropyl ether and acetone.
In the following table 1, the reference examples and examples of the present invention are summarized: […]

Row | Compound | physical state of the salt | also measured
1 | C#CCN[C@@H]1CCc2ccccc21 [Ex. 3, Rasagiline Propanoate] | – | physical state of the salt at 0° C. (0° C.): solid; physical state of the salt (listed as Rasagiline propionate): oil
2 | C#CCNC1CCc2ccccc21.O=C1NS(=O)(=O)c2ccccc21 (stereo not shown) [Ref. Ex. 5, Rasagiline Saccharinate] | solid | –
3 | C#CCN[C@@H]1CCc2ccccc21 [Ref. Ex. 7, Rasagiline Lauryl Sulphate] | solids | –
4 | C#CCN[C@@H]1CCc2ccccc21 [Ref. Ex. 8, Rasagiline 4-dodecylbenzenesulfonate] | – | physical state of the salt (listed as rasagiline dodecyl benzene sulphonate): solids
5 | C#CCN[C@@H]1CCc2ccccc21.CC(=O)O [Ref. Ex. 9, Rasagiline Acetate] | crystalline solid | –
6 | Rasagiline Docusate [Ref. Ex. 6] | solid wax | –
